# US20180325889A1, “IMMUNOREGULATORY AGENTS” (FLEXUS BIOSCIENCES, INC., priority 2014, published 2018)
# Molecular target: T1, human IDO1/HEK293 cells (Homo sapiens, UniProt P14902)
# T1 construct: expressed in transfected cells
# Experiment: HEK Human IDO-1 cell-based IDO inhibition assay (kynurenine production)
# Conditions: HEK293 cells stably expressing human IDO1, 20 hours incubation, absorbance at 490 nm; read-out: HEK Human IDO-1 Bio Activity (IDO IC50)
# Procedure: They were cultured in medium (DMEM with 10% FBS) containing 1 mg/ml G418 for two weeks.
# The human IDO1/HEK293 cells were seeded at 10,000 cells per 50 μL per well with RPMI/phenol red free media contains 10% FBS in a 384-well black wall clear bottom tissue culture plate (Matrix Technologies LLC) 100 nL of certain concentration of compound was then added to each well using ECHO liquid handling systems. The cells were incubated for 20 hours in 37° C. incubator with 5% CO2.
# The compound treatments were stopped by adding trichloroacetic acid (Sigma-Aldrich) to a final concentration at 0.2%. The cell plate was further incubated at 50° C. for 30 minute. The equal volume supernatant (20 μL) and 0.2% (w/v) Ehrlich reagent (4-dimethylaminobenzaldehyde, Sigma-Aldrich) in glacial acetic acid were mixed in a new clear bottom 384-well plate. This plate was then incubated at room temperature for 30 minute. The absorbance at 490 nm was measured on Envision plate reader.
# T1 sequence (P14902 whole entry): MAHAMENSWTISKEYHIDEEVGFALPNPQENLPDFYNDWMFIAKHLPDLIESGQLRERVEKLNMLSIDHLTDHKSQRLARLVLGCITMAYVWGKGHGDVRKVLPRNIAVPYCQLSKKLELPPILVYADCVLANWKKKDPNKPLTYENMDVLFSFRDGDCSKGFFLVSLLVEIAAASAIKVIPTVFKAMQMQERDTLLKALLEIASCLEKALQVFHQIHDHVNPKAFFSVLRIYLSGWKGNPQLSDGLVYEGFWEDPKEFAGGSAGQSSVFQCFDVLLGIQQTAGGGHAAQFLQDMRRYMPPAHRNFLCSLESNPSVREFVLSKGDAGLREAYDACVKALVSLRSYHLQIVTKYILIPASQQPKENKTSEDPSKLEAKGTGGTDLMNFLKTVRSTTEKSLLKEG
row,SMILES,IC50 [µM]
1,"CC(NC(=O)c1ccc(Cl)cc1)C1CCC(c2ccc(C(F)(F)F)nc2)CC1 (single isomer, unassigned) [Example 218, 4-chloro-N-(1-(4-(6-(trifluoromethyl)pyridin-3-yl)cyclohexyl)ethyl)benzamide]",< 2
2,"CC(NC(=O)c1ccc(Cl)cc1)C1CCC(c2ccc(C(F)(F)F)nc2)CC1 (single isomer, unassigned) [Example 219, 4-chloro-N-(1-(4-(6-(trifluoromethyl)pyridin-3-yl)cyclohexyl)ethyl)benzamide]",< 0.25
3,"CC(NC(=O)c1ccc(Cl)cc1)C1CCC(c2ccc(C(F)(F)F)nc2)CC1 (single isomer, unassigned) [Example 220, 4-chloro-N-(1-(4-(6-(trifluoromethyl)pyridin-3-yl)cyclohexyl)ethyl)benzamide]",< 0.25
4,"Cc1c(C2CCC(C(C)NC(=O)c3ccc(-c4ccccc4)cc3)CC2)ccnc1F (single isomer, unassigned) [Example 222, N-(1-(4-(2-fluoro-3-methylpyridin-4-yl)cyclohexyl)ethyl)-[1,1′-biphenyl]-4-carboxamide]",< 2
5,"Cc1c(C2CCC(C(C)NC(=O)c3ccc(-c4ccccc4)cc3)CC2)ccnc1F (single isomer, unassigned) [Example 223, N-(1-(4-(2-fluoro-3-methylpyridin-4-yl)cyclohexyl)ethyl)-[1,1′-biphenyl]-4-carboxamide]",< 0.05
6,"Cc1c(C2CCC(C(C)NC(=O)c3ccc(-c4ccccc4)cc3)CC2)ccnc1F (single isomer, unassigned) [Example 224, N-(1-(4-(2-fluoro-3-methylpyridin-4-yl)cyclohexyl)ethyl)-[1,1′-biphenyl]-4-carboxamide]",< 0.25
7,"CCC(NC(=O)c1ccc(Cl)cc1)C1CCC(c2cccc(C(F)F)n2)CC1 (single isomer, unassigned) [Example 231b, 4-chloro-N-(1-(4-(6-(difluoromethyl)pyridin-2-yl)cyclohexyl)propyl)benzamide]",< 2
8,"CCC(NC(=O)c1ccc(Cl)cc1)C1CCC(c2cccc(C(F)F)n2)CC1 (single isomer, unassigned) [Example 231c, 4-chloro-N-(1-(4-(6-(difluoromethyl)pyridin-2-yl)cyclohexyl)propyl)benzamide]",< 2
9,"CCC(NC(=O)c1ccc(Cl)cc1)C1CCC(c2cccc(C(F)F)n2)CC1 (single isomer, unassigned) [Example 231d, 4-chloro-N-(1-(4-(6-(difluoromethyl)pyridin-2-yl)cyclohexyl)propyl)benzamide]",< 2
10,"CCC(NC(=O)c1ccc(Cl)cc1)C1CCC(c2cccc(C(F)F)n2)CC1 (single isomer, unassigned) [Example 231e, 4-chloro-N-(1-(4-(6-(difluoromethyl)pyridin-2-yl)cyclohexyl)propyl)benzamide]",< 0.05
11,"Cc1cccc(S(=O)(=O)N[C@H](C)[C@H]2CC[C@@H](c3ccnc4ccc(F)cc43)CC2)c1 [Example 40, N—((R)-1-((1 s,4S)-4-(6-Fluoroquinolin-4-yl)cyclohexyl)ethyl)-3-methylbenzenesulfonamide]",< 2
12,"Cc1ccc(S(=O)(=O)N[C@H](C)[C@H]2CC[C@@H](c3ccnc4ccc(F)cc43)CC2)cc1 [Example 41, N-((R)-1-((1s,4S)-4-(6-fluoroquinolin-4-yl)cyclohexyl)ethyl)-4-methylbenzenesulfonamide]",< 0.25
13,"C[C@@H](NS(=O)(=O)c1ccccc1Cl)[C@H]1CC[C@@H](c2ccnc3ccc(F)cc32)CC1 [Example 42, 2-chloro-N-((R)-1-((1s,4S)-4-(6-fluoroquinolin-4-yl)cyclohexyl)ethyl)benzenesulfonamide]",< 2
14,"C[C@@H](NS(=O)(=O)c1ccc(Cl)cc1)[C@H]1CC[C@@H](c2ccnc3ccc(F)cc32)CC1 [Example 43, 4-chloro-N-((R)-1-((1s,4S)-4-(6-fluoroquinolin-4-yl)cyclohcxyl)ethyl)benzenesulfonamide]",< 2
15,"C[C@@H](NS(=O)(=O)c1cccc(Cl)c1)[C@H]1CC[C@@H](c2ccnc3ccc(F)cc32)CC1 [Example 44, 3-chloro-N-((R)-1-((1s,4S)-4-(6-fluoroquinolin-4-yl)cyclohexyl)ethyl)benzenesulfonamide]",< 0.05
16,"COc1cccc(S(=O)(=O)N[C@H](C)[C@H]2CC[C@@H](c3ccnc4ccc(F)cc43)CC2)c1 [Example 45, N-((R)-1-((1s,4S)-4-(6-fluoroquinolin-4-yl)cyclohexyl)ethyl)-3-methoxybenzenesulfonamide]",< 2
17,"COc1ccc(S(=O)(=O)N[C@H](C)[C@H]2CC[C@@H](c3ccnc4ccc(F)cc43)CC2)cc1 [Example 46, N-((R)-1-((1s,4S)-4-(6-fluoroquinolin-4-yl)cyclohexyl)ethyl)-4-methoxybenzenesulfonamide]",< 2
18,"C[C@@H](NC(=O)c1ccc(Cl)cc1)[C@H]1CC[C@@H](c2ccnc3ccc(F)cc32)CC1 [Example 47, 4-Chloro-N—((R)-1-((1 s,4S)-4-(6-fluoroquinolin-4-yl)cyclohexyl)ethyl)benzamide]",< 0.05

row,SMILES,IC50 [µM]
1,"C[C@@H](NC(=O)c1ccccc1)[C@H]1CC[C@@H](c2ccnc3ccc(F)cc32)CC1 [Example 48, N-((R)-1-((1s,4S)-4-(6-fluoroquinolin-4-yl)cyclohexyl)ethyl)benzamide]",< 0.05
2,"Cc1ccccc1C(=O)N[C@H](C)[C@H]1CC[C@@H](c2ccnc3ccc(F)cc32)CC1 [Example 49, N-((R)-1-((1s,4S)-4-(6-fluoroquinolin-4-yl)cyclohexyl)ethyl)-2-methylbenzamide]",< 0.05
3,"Cc1cccc(C(=O)N[C@H](C)[C@H]2CC[C@@H](c3ccnc4ccc(F)cc43)CC2)c1 [Example 50, N-((R)-1-((1s,4S)-4-(6-fluoroquinolin-4-yl)cyclohexyl)ethyl)-3-methyl benzamide]",< 0.05
4,"Cc1ccc(C(=O)N[C@H](C)[C@H]2CC[C@@H](c3ccnc4ccc(F)cc43)CC2)cc1 [Example 51, N-((R)-1-((1s,4S)-4-(6-fluoroquinolin-4-yl)cyclohexyl)ethyl)-4-methylbenzamide]",< 0.05
5,"COc1ccccc1C(=O)N[C@H](C)[C@H]1CC[C@@H](c2ccnc3ccc(F)cc32)CC1 [Example 52, N-((R)-1-((1s,4S)-4-(6-fluoroquinolin-4-yl)cyclohexyl)ethyl)-2-methoxybenzamide]",< 0.05
6,"COc1cccc(C(=O)N[C@H](C)[C@H]2CC[C@@H](c3ccnc4ccc(F)cc43)CC2)c1 [Example 53, N-((R)-1-((1s,4S)-4-(6-fluoroquinolin-4-yl)cyclohexyl)ethyl)-3-methoxybenzamide]",< 0.05
7,"C[C@@H](NC(=O)c1ccccc1F)[C@H]1CC[C@@H](c2ccnc3ccc(F)cc32)CC1 [Example 54, 2-fluoro-N-((R)-1-((1s,4S)-4-(6-fluoroquinolin-4-yl)cyclohexyl)ethyl)benzamide]",< 0.05
8,"C[C@@H](NC(=O)c1cccc(F)c1)[C@H]1CC[C@@H](c2ccnc3ccc(F)cc32)CC1 [Example 55, 3-fluoro-N-((R)-1-((1S,4S)-4-(6-fluoroquinolin-4-yl)cyclohexyl)ethyl)benzamide]",< 0.05
9,"C[C@@H](NC(=O)c1ccccc1Cl)[C@H]1CC[C@@H](c2ccnc3ccc(F)cc32)CC1 [Example 56, 2-chloro-N-((R)-1-((1s,4S)-4-(6-fluoroquinolin-4-yl)cyclohexyl)ethyl)benzamide]",< 0.05
10,"C[C@@H](NC(=O)c1cccc(Cl)c1)[C@H]1CC[C@@H](c2ccnc3ccc(F)cc32)CC1 [Example 57, 3-chloro-N-((R)-1-((1s,4S)-4-(6-fluoroquinolin-4-yl)cyclohexyl)ethyl)benzamide]",< 0.05
11,"C[C@@H](NC(=O)c1ccc(Cl)c(Cl)c1)[C@H]1CC[C@@H](c2ccnc3ccc(F)cc32)CC1 [Example 59, 3,4-dichloro-N-((R)-1-((1s,4S)-4-(6-fluoroquinolin-4-yl)cyclohexyl)ethyl)benzamide]",< 0.05
12,"C[C@@H](NC(=O)c1ccc(F)cc1)[C@H]1CC[C@@H](c2ccnc3ccc(F)cc32)CC1 [Example 60, 4-fluoro-N-((R)-1-((1s,4S)-4-(6-fluoroquinolin-4-yl)cyclohexyl)ethyl)benzamide]",< 0.05
13,"C[C@@H](NC(=O)c1cccc(-c2ccccc2)c1)[C@H]1CC[C@@H](c2ccnc3ccc(F)cc32)CC1 [Example 61, N-((R)-1-((1s,4S)-4-(6-fluoroquinolin-4-yl)cyclohexyl)ethyl)-[1,1′-biphenyl]-3-carboxamide]",< 0.05
14,"C[C@@H](NC(=O)c1cc(Cl)cc(Cl)c1)[C@H]1CC[C@@H](c2ccnc3ccc(F)cc32)CC1 [Example 66, 3,5-dichloro-N-((R)-1-((1s,4S)-4-(6-fluoroquinolin-4-yl)cyclohexyl)ethyl)benzamide]",< 0.05
15,"C[C@@H](NC(=O)c1ccccn1)[C@H]1CC[C@@H](c2ccnc3ccc(F)cc32)CC1 [Example 67, N-((R)-1-((1s,4S)-4-(6-fluoroquinolin-4-yl)cyclohexyl)ethyl)picolinamide]",< 0.05
16,"COc1ccc(C(=O)N[C@H](C)[C@H]2CC[C@@H](c3ccnc4ccc(F)cc43)CC2)cc1 [Example 68, N-((R)-1-((1s,4S)-4-(6-fluoroquinolin-4-yl)cyclohexyl)ethyl)-4-methoxybenzamide]",< 0.05
17,"C[C@@H](NC(=O)c1ccccc1-c1ccccc1)[C@H]1CC[C@@H](c2ccnc3ccc(F)cc32)CC1 [Example 69, N-((R)-1-((1s,4S)-4-(6-fluoroquinolin-4-yl)cyclohexyl)ethyl)-[1,1′-biphenyl]-2-carboxamide]",< 0.05
